The results in this text go back to publication PMC12473689, “Drug Metabolism and Pharmacokinetics of Oxazolo[4,5-c]quinoline Analogs as Novel Interleukin-33 Inhibitors” (Pharmaceutics, 2025).

Where a name gives a salt, the structure may show the parent alone.

Series [1] in a line: Binding in mouse liver S9 fraction by equilibrium dialysis (RED). The series is classed as in vitro ADME. The note with it: ICR, mouse, liver S9 fraction, pH 7.4, mouse liver S9, 1 mg/mL protein, equilibrium dialysis 37 °C 4 h, mean ± SD (n = 3); read-out: fu (%) in liver S9 fractions. On the procedure: (§1) The nonspecific binding of KB-1517 and KB-1518 in human and mouse plasma and liver S9 fractions was determined by equilibrium dialysis using a Rapid Equilibrium Device (RED) system (Thermo Fisher Scientific, Seoul, Republic of Korea).
(§2) Working solutions (200 μM for plasma, 60 μM for S9 fractions) were prepared in 40% aqueous acetonitrile. These were diluted 20-fold into either plasma or S9 incubation buffer (1 mg/mL protein, 200 mM Tris-HCl, 2 mM MgCl2, pH 7.4) to create the final dosing solutions.
(§3) For the dialysis, RED inserts (8 kDa MWCO) were used. Into each device, 200 μL of a dosing solution was added to the sample chamber, and 350 μL of PBS was added to the buffer chamber. The plate was sealed and incubated at 37 °C for 4 h on an orbital shaker (100 rpm) to allow the system to reach equilibrium.
(§4) Following incubation, 50 μL aliquots were taken from both chambers. To ensure analytical consistency, the samples were matrix-matched: the sample chamber aliquot was mixed with 50 μL of PBS, and the buffer chamber aliquot was mixed with 50 μL of the corresponding blank matrix (plasma or S9 incubation buffer). Proteins were then precipitated by adding 200 μL of ice-cold acetonitrile containing diclofenac (1 μg/mL) as IS. The samples were subsequently vortexed, sonicated for 5 min, and centrifuged at 4000× g for 20 min. Finally, a 100 μL aliquot of the resulting supernatant was diluted with 100 μL of HPLC-grade water in a 96-well plate for subsequent LC-MS/MS analysis.
Background: In equilibrium dialysis only unbound substance equilibrates across the membrane.

Series [2] in a line: Binding in human liver S9 fraction by equilibrium dialysis (RED). The class given is in vitro ADME. The note with it: human, liver S9 fraction, pH 7.4, human liver S9, 1 mg/mL protein, equilibrium dialysis 37 °C 4 h, mean ± SD (n = 3); read-out: fu (%) in liver S9 fractions. How it is done: as §1, §2, §3, §4
A short description of series [3]: Metabolite identification in liver S9 incubations. The note with it: S9 1 mg protein/mL, 60 min, 37 °C, H: human, M: mouse. The series is classed as in vitro ADME. How it is done:
The incubation mixture (final volume 200 µL) contained: 125 µL of deionized water, 40 µL of Tris mix buffer, 10 µL of 20 mg protein/mL S9 fraction (final concentration 1 mg protein/mL), and 5 µL of the test compound working solution (final concentration 3 µM). The final concentrations of DMSO and acetonitrile were 0.03% and 1%, respectively. The mixture was pre-incubated at 37 °C for 5 min in a shaking water bath. The reaction was initiated by adding 20 µL of the combined cofactor solution (final concentrations: 1 mM NADPH, 0.5 mM UDPGA, 0.1 mM PAPS, 2.5 mM GSH). Control incubations were performed without the cofactor mixture (replaced with buffer) and at 0 min (quenched immediately after adding cofactors). Incubations were carried out at 37 °C for 0, 15, 30, and 60 min (for stability) or 60 min (for metabolite ID). Reactions were terminated by adding 200 µL of ice-cold acetonitrile containing IS (diclofenac).
Metabolite identification was performed using samples generated from the in vitro liver S9 incubations (final substrate concentration 20 µM, 60 min incubation) and plasma samples from the in vivo IP administration study. Samples were analyzed using an Agilent 6530 Q-TOF LC-MS/MS system (Agilent Technologies Korea Ltd., Seoul, Republic of Korea). Data processing and metabolite identification were performed using Agilent MassHunter Metabolite ID software (ver. B.04.00), searching for expected biotransformations (e.g., oxidation, demethylation, glucuronidation, sulfation, GSH conjugation) and comparing MS/MS fragmentation patterns of metabolites with the parent drug.
Qualitative analysis for metabolite identification was performed using the same LC system coupled to an Agilent 6530 Q-TOF mass spectrometer system (Agilent Technologies Korea Ltd., Seoul, Republic of Korea) with a dual AJS ESI source operating in positive ion mode. The chromatographic conditions were identical to those used for quantitative analysis.
The ion source parameters for the mass spectrometer were set as follows: gas temperature 325 °C, gas flow 12 L/min, nebulizer pressure 35 psi, sheath gas temperature 350 °C, and sheath gas flow 10 L/min. Data were acquired in MS scan mode (m/z 100–1000) and targeted MS/MS or Auto MS/MS mode. Data acquisition and processing were performed using Agilent MassHunter Qualitative Analysis (ver. B.05.00) and Metabolite ID software (ver. B.04.00).
To elucidate the metabolic pathways, metabolite identification studies were conducted using in vitro liver S9 fractions incubations (20 µM substrate) and in vivo plasma samples from mice administered an IP dose (200 µg/mouse). Metabolites were identified based on accurate mass measurements, isotopic patterns, and MS/MS fragmentation patterns compared to the parent compound using LC-Q-TOF MS/MS system (Agilent Technologies Ltd., Seoul, Republic of Korea).

A short description of series [4]: Plasma protein binding by equilibrium dialysis (RED), mouse plasma. The series is classed as in vitro ADME. As to conditions: male, ICR, equilibrium dialysis 37 °C 4 h, mean ± SD (n = 3), read-out: fu (%) plasma protein binding. How it is done: as §1, §2, §3, §4
Series [5] in a line: Plasma protein binding by equilibrium dialysis (RED), human plasma. The class given is in vitro ADME. The note with it: equilibrium dialysis 37 °C 4 h, mean ± SD (n = 3), read-out: fu (%) plasma protein binding. On the procedure: as §1, §2, §3, §4
Series [6] has as its system flavin-containing monooxygenase (FMO) in MLM. Kind of series: FMO involvement: metabolic stability in control vs heat-inactivated mouse liver microsomes. The series is classed as in vitro ADME, male ICR mouse. As to conditions: pre-incubated 45 °C for 5 min vs control, 60 min incubation, NADPH. On the procedure:
(§5) To determine the potential involvement of flavin-containing monooxygenase (FMO), a parallel assay was conducted with HLM and MLM [31]. To selectively inactivate FMO, microsomes (20 mg protein/mL) were pre-incubated at 45 °C for 5 min. Non-inactivated microsomes served as the control. Subsequently, metabolic incubations were performed with both control and heat-inactivated microsomes at 37 °C for 60 min. The incubation procedure was identical to that described above for the S9 fractions, with the exception that NADPH was used as the sole cofactor.
(Liver microsomes are vesicles of endoplasmic reticulum, rich in cytochrome P450 enzymes.)

Series [7] concerns flavin-containing monooxygenase (FMO) in HLM. Description: FMO involvement: metabolic stability in control vs heat-inactivated human liver microsomes. The series is classed as in vitro ADME. As to conditions: pre-incubated 45 °C for 5 min vs control, 60 min incubation, NADPH. How it is done: as §5

In the case of `Cc1cc(=O)n(-c2ccccc2)n1C` [Antipyrine, antipyrine, reference compound], the fraction unbound at 4 h, 3 µM was found to be 0.937 ± 0.011 in series [1] and 0.946 ± 0.026 in series [2]. The matching figures for `CCC(C)n1ncn(-c2ccc(N3CCN(c4ccc(OCC5COC(Cn6cncn6)(c6ccc(Cl)cc6Cl)O5)cc4)CC3)cc2)c1=O` (stereo not drawn) [Itraconazole, itraconazole, reference compound]: 0.019 ± 0.002 and 0.028 ± 0.006. Consider `CNCCn1c(=O)c2nc(-c3ccc(C(F)(F)F)cc3)oc2c2ccccc21` [KB-1517 M1], for which, in series [3] (KB-1517 20 µM), the “Species in whose liver S9 the metabolite was detected” value (shortened to “Species”) is listed as “H, M”.

As for `C[N+](C)([O-])CCn1c(=O)c2nc(-c3ccc(C(F)(F)F)cc3)oc2c2ccccc21` [KB-1517 M2], the “Species” value in series [3] (KB-1517 20 µM) is “H, M”. As for `CN(CCO)c1nc2ccccc2c2oc(-c3ccc(C(F)(F)F)cc3)nc12` [KB-1518 M1], the “Species” value in series [3] (KB-1518 20 µM) is reported as “H, M”. In the case of `OCCNc1nc2ccccc2c2oc(-c3ccc(C(F)(F)F)cc3)nc12` [KB-1518 M2], the “Species” value in series [3] (KB-1518 20 µM) is “H, M”. On to `C[N+](C)([O-])CCOc1nc2ccccc2c2oc(-c3ccc(C(F)(F)F)cc3)nc12` [KB-1518 M3], for which the “Species” value in series [3] (KB-1518 20 µM) is reported as “H, M”. Regarding `CC(C)NCC(O)COc1cccc2ccccc12` (stereo not drawn) [Propranolol, propranolol], the fraction unbound at 4 h, 10 µM in series [4] was 0.247 ± 0.005; in series [5], 0.262 ± 0.026. Consider `CNC(=C[N+](=O)[O-])NCCSCc1ccc(CN(C)C)o1` [Ranitidine, ranitidine], for which the fraction unbound at 4 h, 10 µM in series [4] was found to be 0.888 ± 0.054; in series [5] it was 0.85 ± 0.006. For the molecule `CN(C)CCCOc1nn(Cc2ccccc2)c2ccccc12` [benzydamine, Benzydamine hydrochloride], the “Effect of heat inactivation (FMO) on metabolism” value in series [6] and in series [7] was “significantly inhibited the metabolism” in each case.
